According to PMC7584476, “Safety and efficacy of BAY1436032 in IDH1-mutant AML: phase I study results” (Leukemia, 2020):
Entries after “also recorded” stand apart in the source; their conditions may differ.

Test system: subjects with mIDH1 advanced AML
Assay: Phase I study: safety and tolerability (TEAE, DLT, MTD, ECG)
Format: in vivo
Procedure: This study was an open-label, nonrandomized, multicenter phase I trial. Subjects were screened at 13 hospital sites in 2 countries (USA and Germany). The study was to consist of dose-escalation followed by dose-expansion. The MTD identified in dose-escalation was to be used in the dose-expansion. If MTD was not reached in dose-escalation, a dose for the expansion would be selected based on available PK, pharmacodynamic, safety, and efficacy data. BAY1436032 was administered twice-daily (BID) in continuous 28-day cycles. In dose-escalation, up to 9 evaluable subjects could be enrolled per cohort, with a minimum of 3 dose-limiting toxicity (DLT)-free evaluable subjects required prior to escalating to the next highest dose. Bayesian dose-DLT modeling was performed to help guide dosing decisions.
DLTs were differentially defined for nonhematopoietic versus hematopoietic toxicities. Nonhematopoietic toxicities of ≥grade 3 occurring during the first cycle of treatment were to be considered DLTs with the following exceptions: (1) Alopecia and nausea controlled by medical management; (2) Tumor lysis syndrome if successfully managed clinically and resolved within 7 days without any end-organ damage; (3) Differentiation syndrome (DS) if successfully managed clinically and resolved within 7 days without any end-organ damage; (4) Asymptomatic ≥grade 3 electrolyte abnormalities not considered clinically significant by the investigator. […] For certain toxicities such as laboratory assessments without a clear clinical correlate, a discussion between the investigator and the sponsor determined whether the adverse event (AE) should be assessed as a DLT.
DLTs identified during the first cycle of treatment were used to guide dose-escalation decisions and to determine the MTD, and if safety issues appeared in subsequent cycles they were also to be considered. Hydroxyurea was permitted during the first cycle if white blood cell (WBC) exceeded 20 × 10^9/L and was also permitted for treatment of DS.
Safety and tolerability were evaluated by analysis of adverse events, physical examinations, vital signs, ECOG performance status, and various laboratory assessments. For safety monitoring, subjects were scheduled for clinic visits every week for the initial three cycles of treatment, after which time visits could be reduced to every-other-week with investigator and sponsor agreement. Cardiac function was assessed with triplicate 12-lead electrocardiograms (ECG) at screening, C1-D1, C1-D2, C1-D15, D1 of every subsequent cycle, and at treatment end. […] AEs are presented by the Medical Dictionary for Regulatory Activities (MedDRA) v21.1.

C[C@H]1C[C@@H](n2c(Nc3ccc(OC(F)(F)F)cc3)nc3cc(CCC(=O)O)ccc32)CC(C)(C)C1 [BAY1436032]
TEAE Sepsis Grade 5 (1500 mg BID, n=9): 1
TEAE Sinus tachycardia Grade 1 (1500 mg BID, n=9): 1
TEAE Thrombocytopenia Grade 4 (1500 mg BID, n=9): 2
TEAE Vomiting Grade 1 (1500 mg BID, n=9): 3
TEAE Weight decreased Grade 1 (1500 mg BID, n=9): 0
TEAE Weight decreased Grade 2 (1500 mg BID, n=9): 0
TEAE Weight decreased Grade 3 (1500 mg BID, n=9): 1
Deaths during treatment or within 30 days of discontinuation (27 treated): Six of 27
Related TEAE DS grade 3 (27 treated): single subject
Related TEAE Fatigue Grade 3 (27 treated): single subject
Related TEAE amylase increase grade 3 (27 treated): single subject
Related TEAE anemia grade 4 (27 treated): single subject
Related TEAE decreased WBC count grade 3 (27 treated): single subject
Related TEAE decreased neutrophil count grade 4 (27 treated): single subject
Related TEAE decreased platelet count grade 4 (27 treated): single subject
Related TEAE febrile neutropenia grade 3 (27 treated): single subject
Related TEAE hyponatremia grade 3 (27 treated): single subject
Related TEAE ileus grade 4 (27 treated): single subject
Related TEAE lung infiltration grade 3 (27 treated): single subject
Related TEAE peripheral edema grade 3 (27 treated): single subject
Related TEAE pneumonitis grade 3 (27 treated): single subject
Related TEAE sepsis grade 4 (27 treated): single subject
Subjects with DS or symptoms associated with DS (27 treated): 19%
Subjects with at least 1 TEAE of any grade related to BAY1436032 (27 treated): Seventeen of 27
Subjects with at least 1 TEAE of ≥grade 3 related to BAY1436032 (27 treated): Seven of 27
Subjects with at least 1 TEAE ≥ grade 3 irrespective of relationship (27 treated): Twenty-four
Maximum tolerated dose (300 to 1500 mg BID): not identified; also recorded: No MTD was identified
Related TEAE Decreased appetite Grade 1 (Total, n=27): 1 (4) n (%)
Related TEAE Decreased appetite Grade 2 (Total, n=27): 1 (4) n (%)
Related TEAE Diarrhea Grade 2 (Total, n=27): 2 (7) n (%)
Related TEAE Differentiation syndrome Grade 2 (Total, n=27): 1 (4) n (%)
Related TEAE Differentiation syndrome Grade 3 (Total, n=27): 1 (4) n (%)
Related TEAE Dyspnea Grade 1 (Total, n=27): 2 (7) n (%)
Related TEAE Dyspnea Grade 2 (Total, n=27): 1 (4) n (%)
Related TEAE Fatigue Grade 1 (Total, n=27): 1 (4) n (%)
Related TEAE Fatigue Grade 2 (Total, n=27): 2 (7) n (%)
Related TEAE Fatigue Grade 3 (Total, n=27): 1 (4) n (%)
Related TEAE Hypomagnesaemia Grade 1 (Total, n=27): 2 (7) n (%)
Related TEAE Nausea Grade 1 (Total, n=27): 4 (15) n (%)
Related TEAE Nausea Grade 2 (Total, n=27): 1 (4) n (%)
Related TEAE Sinus tachycardia Grade 1 (Total, n=27): 2 (7) n (%)
Related TEAE Vomiting Grade 1 (Total, n=27): 4 (15) n (%)
TEAE Abdominal pain upper Grade 1 (Total, n=27): 2 (7) n (%)
TEAE Abdominal pain upper Grade 2 (Total, n=27): 1 (4) n (%)
TEAE Acute kidney injury Grade 1 (Total, n=27): 1 (4) n (%)
TEAE Acute kidney injury Grade 2 (Total, n=27): 1 (4) n (%)
TEAE Acute kidney injury Grade 3 (Total, n=27): 1 (4) n (%)
TEAE Anaemia Grade 3 (Total, n=27): 4 (15) n (%)
TEAE Anaemia Grade 4 (Total, n=27): 1 (4) n (%)
TEAE Anxiety Grade 1 (Total, n=27): 2 (7) n (%)
TEAE Anxiety Grade 2 (Total, n=27): 1 (4) n (%)
TEAE Arthralgia Grade 1 (Total, n=27): 1 (4) n (%)
TEAE Arthralgia Grade 2 (Total, n=27): 2 (7) n (%)
TEAE Constipation Grade 1 (Total, n=27): 4 (15) n (%)
TEAE Constipation Grade 2 (Total, n=27): 1 (4) n (%)
TEAE Contusion Grade 1 (Total, n=27): 3 (11) n (%)
TEAE Contusion Grade 2 (Total, n=27): 1 (4) n (%)
TEAE Cough Grade 1 (Total, n=27): 3 (11) n (%)
TEAE Cough Grade 2 (Total, n=27): 2 (7) n (%)
TEAE Decreased appetite Grade 1 (Total, n=27): 5 (19) n (%)
TEAE Decreased appetite Grade 2 (Total, n=27): 3 (11) n (%)
TEAE Decreased appetite Grade 3 (Total, n=27): 1 (4) n (%)
TEAE Diarrhea Grade 1 (Total, n=27): 7 (26) n (%)
TEAE Diarrhea Grade 2 (Total, n=27): 3 (11) n (%)
TEAE Dry skin Grade 1 (Total, n=27): 5 (19) n (%)
TEAE Dyspnoea Grade 1 (Total, n=27): 4 (15) n (%)
TEAE Dyspnoea Grade 2 (Total, n=27): 2 (7) n (%)
TEAE Dyspnoea Grade 3 (Total, n=27): 3 (11) n (%)
TEAE Epistaxis Grade 1 (Total, n=27): 3 (11) n (%)
TEAE Epistaxis Grade 2 (Total, n=27): 2 (7) n (%)
TEAE Epistaxis Grade 3 (Total, n=27): 1 (4) n (%)
TEAE Fall Grade 1 (Total, n=27): 4 (15) n (%)
TEAE Fatigue Grade 1 (Total, n=27): 4 (15) n (%)
TEAE Fatigue Grade 2 (Total, n=27): 4 (15) n (%)
TEAE Fatigue Grade 3 (Total, n=27): 3 (11) n (%)
TEAE Febrile neutropenia Grade 3 (Total, n=27): 7 (26) n (%)
TEAE General physical health deterioration Grade 3 (Total, n=27): 2 (7) n (%)
TEAE General physical health deterioration Grade 5 (Total, n=27): 1 (4) n (%)
TEAE Gingivitis Grade 1 (Total, n=27): 3 (11) n (%)
TEAE Haematuria Grade 1 (Total, n=27): 2 (7) n (%)
TEAE Haematuria Grade 2 (Total, n=27): 1 (4) n (%)
TEAE Haematuria Grade 3 (Total, n=27): 1 (4) n (%)
TEAE Headache Grade 1 (Total, n=27): 1 (4) n (%)
TEAE Headache Grade 2 (Total, n=27): 2 (7) n (%)
TEAE Headache Grade 3 (Total, n=27): 1 (4) n (%)
TEAE Hyperkalaemia Grade 1 (Total, n=27): 2 (7) n (%)
TEAE Hyperkalaemia Grade 4 (Total, n=27): 1 (4) n (%)
TEAE Hypertension Grade 2 (Total, n=27): 2 (7) n (%)
TEAE Hypertension Grade 3 (Total, n=27): 1 (4) n (%)
TEAE Hyperuricaemia Grade 1 (Total, n=27): 4 (15) n (%)
TEAE Hyperuricaemia Grade 3 (Total, n=27): 1 (4) n (%)
TEAE Hypokalaemia Grade 1 (Total, n=27): 3 (11) n (%)
TEAE Hypokalaemia Grade 2 (Total, n=27): 1 (4) n (%)
TEAE Hypokalaemia Grade 3 (Total, n=27): 2 (7) n (%)
TEAE Hyponatraemia Grade 1 (Total, n=27): 2 (7) n (%)
TEAE Hyponatraemia Grade 3 (Total, n=27): 1 (4) n (%)
TEAE Hypophosphataemia Grade 1 (Total, n=27): 1 (4) n (%)
TEAE Hypophosphataemia Grade 2 (Total, n=27): 2 (7) n (%)
TEAE Leukocytosis Grade 2 (Total, n=27): 2 (7) n (%)
TEAE Leukocytosis Grade 3 (Total, n=27): 2 (7) n (%)
TEAE Lung infection Grade 3 (Total, n=27): 3 (11) n (%)
TEAE Lung infection Grade 5 (Total, n=27): 1 (4) n (%)
TEAE Nausea Grade 1 (Total, n=27): 5 (19) n (%)
TEAE Nausea Grade 2 (Total, n=27): 2 (7) n (%)
TEAE Nausea Grade 3 (Total, n=27): 2 (7) n (%)
TEAE Oedema peripheral Grade 1 (Total, n=27): 6 (22) n (%)
TEAE Oedema peripheral Grade 3 (Total, n=27): 2 (7) n (%)
TEAE Pain in extremity Grade 1 (Total, n=27): 2 (7) n (%)
TEAE Pain in extremity Grade 2 (Total, n=27): 1 (4) n (%)
TEAE Pneumonia Grade 1 (Total, n=27): 1 (4) n (%)
TEAE Pneumonia Grade 2 (Total, n=27): 2 (7) n (%)
TEAE Pneumonia Grade 3 (Total, n=27): 3 (11) n (%)
TEAE Pneumonia fungal Grade 2 (Total, n=27): 1 (4) n (%)
TEAE Pneumonia fungal Grade 3 (Total, n=27): 1 (4) n (%)
TEAE Pneumonia fungal Grade 4 (Total, n=27): 1 (4) n (%)
TEAE Productive cough Grade 1 (Total, n=27): 2 (7) n (%)
TEAE Productive cough Grade 2 (Total, n=27): 1 (4) n (%)
TEAE Pyrexia Grade 1 (Total, n=27): 4 (15) n (%)
TEAE Pyrexia Grade 2 (Total, n=27): 1 (4) n (%)
TEAE Pyrexia Grade 3 (Total, n=27): 3 (11) n (%)
TEAE Rash Grade 1 (Total, n=27): 1 (4) n (%)
TEAE Rash Grade 2 (Total, n=27): 3 (11) n (%)
TEAE Sepsis Grade 4 (Total, n=27): 3 (11) n (%)
TEAE Sepsis Grade 5 (Total, n=27): 2 (7) n (%)
TEAE Sinus tachycardia Grade 1 (Total, n=27): 3 (11) n (%)
TEAE Thrombocytopenia Grade 4 (Total, n=27): 3 (11) n (%)
TEAE Vomiting Grade 1 (Total, n=27): 7 (26) n (%)
TEAE Weight decreased Grade 1 (Total, n=27): 3 (11) n (%)
TEAE Weight decreased Grade 2 (Total, n=27): 3 (11) n (%)
TEAE Weight decreased Grade 3 (Total, n=27): 1 (4) n (%)
Subjects with DS or symptoms associated with DS (count of 27 treated): Five of 27
Dose-limiting toxicities (grade 4 ileus, subject 21, cohort 4): single DLT
Clinically significant ECG changes such as QTc prolongation related to treatment (in vivo): no clinically significant ECG
Deaths attributed to study drug (in vivo): none
Episodes of ≥grade 3 QT prolongation (in vivo): no episodes
